Data published in US11116740B2, “Methods for use in support of planned supplement and food ingredient products for diagnosis and treatment of metabolic syndrome” (priority 2015, dated 2021).

Test: Serum fatty acid metabolomics (UPLC-MS/MS), feeding study
Procedure: This study examined global metabolic profiles in six dolphins (“Group A dolphins”). The dolphins lived in netted enclosures within San Diego Bay. The dolphins started on a 100% capelin diet. Group A dolphins were fed one-third of their daily diet in the morning after their routine overnight fast and 2h postprandial, in-water, and trained blood samples were drawn (typically near 10:00 a.m.). An additional four dolphins (“Group C dolphins”) were fed the capelin diet.
Two hour post-prandial samples were collected from the dolphins at baseline (week 0) and at four time points following the switch to the modified diet: 6, 12, 18, and 24 weeks. Routine monthly samples collected from four reference dolphins that were housed in the same environment as the Group A dolphins were assessed for glucose, triglycerides, ferritin, and percent serum fatty acids.
Sample Preparation: Samples were prepared using the automated MicroLab STAR® system from Hamilton Company. Several recovery standards were added prior to the first step in the extraction process for QC purposes. Proteins were precipitated with methanol under vigorous shaking for 2 min (Glen Mills GenoGrinder 2000) followed by centrifugation. The resulting extract was divided into five fractions: two for analysis by two separate reverse phase (RP)/UPLC-MS/MS methods with positive ion mode electrospray ionization (ESI), one for analysis by RP/UPLC-MS/MS with negative ion mode ESI, one for analysis by HILIC/UPLC-MS/MS with negative ion mode ESI, and one sample was reserved. Samples were placed briefly on a TurboVap® (Zymark) to remove the organic solvent. The sample extracts were stored overnight under nitrogen before preparation for analysis.
Ultrahigh Performance Liquid Chromatography-Tandem Mass Spectroscopy (UPLC-MS/[…]): Each of four methods utilized a Waters ACQUITY ultra-performance liquid chromatography (UPLC) and a Thermo Scientific Q-Exactive high resolution/accurate mass spectrometer interfaced with a heated electrospray ionization (HESI-II) source and Orbitrap mass analyzer operated at 35,000 mass resolution. A sample extract was dried, then reconstituted in solvents compatible to each of the four methods. Each reconstitution solvent contained a series of standards at fixed concentrations to ensure injection and chromatographic consistency. A first aliquot was analyzed using acidic positive ion conditions, chromatographically optimized for more hydrophilic compounds. In this method, the extract was gradient eluted from a C18 column (Waters UPLC BEH C18-2. 1×100 mm, 1.7 μm) using water and methanol, containing 0.05% perfluoropentanoic acid (PFPA) and 0.1% formic acid (FA). A second aliquot was also analyzed using acidic positive ion conditions, however it was chromatographically optimized for more hydrophobic compounds. In this method, the extract was gradient eluted from the same afore mentioned C18 column using methanol, acetonitrile, water, 0.05% PFPA and 0.01% FA and was operated at an overall higher organic content. A third aliquot was analyzed using basic negative ion optimized conditions using a separate dedicated C 18 column. The basic extracts were gradient eluted from the column using methanol and water, however with 6.5 mM Ammonium Bicarbonate at pH 8. […] The MS analysis alternated between MS and data-dependent MSn scans using dynamic exclusion. The scan range varied slighted between methods but covered 70-1000 m/z.
Data Extraction and Compound Identification: Raw data was extracted, peak-identified and QC processed using Metabolon's hardware and software. The systems were based on a web-service platform utilizing Microsoft's .NET technologies, which ran on high-performance application servers and fiber-channel storage arrays in clusters to provide active failover and load-balancing. Compounds were identified by comparison to library entries of purified standards or recurrent unknown entities.

[1] = bottlenose dolphin (Tursiops truncatus), in vivo, 6 weeks
[2] = bottlenose dolphin (Tursiops truncatus), in vivo, 18 weeks
[3] = bottlenose dolphin (Tursiops truncatus), in vivo, 24 weeks
[4] = bottlenose dolphin (Tursiops truncatus), in vivo, 12 weeks
[5] = Group A dolphins, modified diet, proportional to value at outset of study

Compound	serum concentration 6 wk / 0 wk (in vivo)	serum concentration 12 wk / 0 wk (in vivo)	serum concentration 18 wk / 0 wk (in vivo)	serum concentration 24 wk / 0 wk (in vivo)	other results
CCCCCCCCCCCCCCCCCCC(=O)O [nonadecanoate (19:0), nonadecanoate]	1.22	1.65	1.79	1.28	–
CCCCCCCCC(=O)O [perlargonate (9:0), nonanoic acid]	–	–	–	–	serum concentration 6 wk / 0 wk [1]: 1.26; serum concentration 18 wk / 0 wk [2]: 1.56; serum concentration 24 wk / 0 wk [3]: 1.41
CCCCC/C=C\C/C=C\C/C=C\C/C=C\CCCCCC(=O)O [adrenate (22:4n6), all-cis-7,10,13,16-docosatetraenoic acid]	1.51	2.17	2.82	1.73	–
CCCCCCCCC=CCCCCCCCCC(=O)O [10-nonadecenoate (19:ln9), 10-nonadecenoate]	1.05	1.28	1.17	0.8	–
CC/C=C\C/C=C\C/C=C\C/C=C\C/C=C\CCCC(=O)O [eicosapentaenoate (EPA; 20:5n3), eicosapentaenoate]	–	–	–	–	serum concentration 6 wk / 0 wk [1]: 0.88; serum concentration 12 wk / 0 wk [4]: 0.99; serum concentration 18 wk / 0 wk [2]: 0.88; serum concentration 24 wk / 0 wk [3]: 0.57
CCCCCCCC(=O)O [caprylate (8:0), caprylate]	–	–	–	–	serum concentration 6 wk / 0 wk [5]: 1.1; serum concentration 12 wk / 0 wk [5]: 1.07; serum concentration 18 wk / 0 wk [5]: 0.96; serum concentration 24 wk / 0 wk [5]: 1.12
CCCCCCCC/C=C\CCCCCCCCCCCC(=O)O [erucate (22:ln9), erucate]	0.71	0.81	0.68	0.45	–
CCCCCC(=O)O [caproate (6:0), caproate]	–	–	–	–	serum concentration 6 wk / 0 wk [5]: 0.98; serum concentration 12 wk / 0 wk [5]: 1.01; serum concentration 18 wk / 0 wk [5]: 0.92; serum concentration 24 wk / 0 wk [5]: 0.76
CCCC/C=C\CCCCCCCC(=O)O [myristoleate (14:ln5), myristoleate]	1.45	1.55	0.97	1.02	–
CCCCC/C=C\C/C=C\CCCCCCCCCC(=O)O [dihomo-linoleate (20:2n6), dihomo-linoleate]	0.9	1.12	–	0.73	–
C=CCCCCCCCCC(=O)O [10-undecenoate (1 l:ln1), 10-undecenoate]	1.41	1.54	1.22	1.75	–
linolenate	1.13	1.1	0.97	0.98	–
CCCCCCCC/C=C\CCCCCCCCCCCCCC(=O)O [nervonate (24:ln9)*, nervonate]	0.71	1.41	0.74	0.62	–
CC/C=C\C/C=C\C/C=C\C/C=C\C/C=C\C/C=C\CCC(=O)O [docosahexaenoate (DHA; 22:6n3), docosahexaenoate]	–	–	–	–	serum concentration 6 wk / 0 wk [5]: 1.05; serum concentration 12 wk / 0 wk [5]: 1.23; serum concentration 18 wk / 0 wk [5]: 1.06; serum concentration 24 wk / 0 wk [5]: 0.74
CCCCC/C=C\C/C=C\C/C=C\C/C=C\C/C=C\CCC(=O)O [docosapentaenoate (n6 DPA; 22:5n6), all-cis-4,7,10,13,16-docosapentaenoic acid]	1.68	2.5	2.33	2.09	–
docosapentaenoate [docosapentaenoate (n3 DPA; 22:5n3)]	1.13	1.37	1.27	0.78	–
CC/C=C\C/C=C\C/C=C\C/C=C\CCCCC(=O)O [stearidonate (18:4n3), stearidonate]	–	0.71	0.61	0.58	–
CCCCCCC(=O)O [heptanoate (7:0), heptanoate]	–	–	–	–	serum concentration 6 wk / 0 wk [5]: 1.42; serum concentration 12 wk / 0 wk [5]: 1.02; serum concentration 18 wk / 0 wk [5]: 1.23; serum concentration 24 wk / 0 wk [5]: 1.21
CCCCC/C=C\C/C=C\CCCCCCCCCCCC(=O)O [docosadienoate (22:2n6), docosadienoate]	0.85	1.08	0.99	0.54	–
CCCCCCC=CCCCCCCCCC(=O)O [10-heptadecenoate (17:ln7), 10-heptadecenoate]	1.12	1.38	1.35	0.87	–
eicosenoate [eicosenoate (20:1)]	0.72	0.81	0.72	0.43	–
oleate/vaccenate [oleate/vaccenate (18:1)]	0.98	1.04	0.84	0.64	–
CCCCCCCCCCCCCC(=O)O [myristate (14:0), myristate]	–	–	–	–	serum concentration 6 wk / 0 wk [5]: 0.8; serum concentration 12 wk / 0 wk [5]: 0.87; serum concentration 18 wk / 0 wk [5]: 0.74; serum concentration 24 wk / 0 wk [5]: 0.58
CCCCC/C=C\C/C=C\CCCCCCCC(=O)O [linoleate (18:2n6), linoleate]	–	–	–	–	serum concentration 6 wk / 0 wk [1]: 0.87; serum concentration 12 wk / 0 wk [4]: 0.93; serum concentration 18 wk / 0 wk [2]: 0.76; serum concentration 24 wk / 0 wk [3]: 0.66
CCCCCCC=CCCCC(=O)O [5-dodecenoate (12:ln7), 5-dodecenoate]	1.49	1.67	1.08	1.11	–
CC/C=C\C/C=C\C/C=C\CCCCCCCCCCCC(=O)O [docosatrienoate (22:3n3), docosatrienoate]	1.08	2.06	1.96	1.06	–
